Measurements: PubChem BioAssay AID192 (DTP/NCI, 2004)
“And” between values parts separate entries of the source, which are not always exact repeats. Equal values may be shown once. Inconclusive results and toxic doses are left out. How the source made its calls: active means survival T/C of 150% or more; inactive means T/C below 125% in these data.

Tested on: BDF1 mice, B16 melanoma ip, median survival T/C
Assay: NCI In Vivo Anticancer Drug Screen. Data for tumor model B16 Melanoma (intraperitoneal) in B6D2F1 (BDF1) mice
Details: endpoint: median survival time, higher = longer survival
Procedure, shortened: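 Survival or tumor size is measured after treatment of tumor-bearing mice and normalised to the vehicle-treated control group.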

[1] = dose: 6.25 mg/kg/injection, schedule: Q01DX009 (ip), vehicle: Klucel (hydroxypropylcellulose) (HPC)
[2] = dose: 12.5 mg/kg/injection, schedule: Q01DX009 (ip), vehicle: Klucel (hydroxypropylcellulose) (HPC)
[3] = dose: 12.5 mg/kg/injection, schedule: Q01DX009 (ip), vehicle: saline with Tween-80
[4] = dose: 25.0 mg/kg/injection, schedule: Q01DX009 (ip), vehicle: Klucel (hydroxypropylcellulose) (HPC)
[5] = dose: 50.0 mg/kg/injection, schedule: Q01DX009 (ip), vehicle: Klucel (hydroxypropylcellulose) (HPC)
[6] = dose: 6.25 mg/kg/injection, schedule: Q01DX009 (ip), vehicle: saline with Tween-80
[7] = dose: 25.0 mg/kg/injection, schedule: Q01DX009 (ip), vehicle: saline with Tween-80
[8] = dose: 50.0 mg/kg/injection, schedule: Q01DX009 (ip), vehicle: saline with Tween-80
[9] = dose: 100.0 mg/kg/injection, schedule: Q01DX009 (ip), vehicle: saline with Tween-80
[10] = dose: 200.0 mg/kg/injection, schedule: Q01DX009 (ip), vehicle: saline with Tween-80

Measured: T/C

CCOC(=O)c1ccc(NC(=O)Nc2nccs2)cc1
inactive: [1] 102 % of control | dose: 6.25 mg/kg/injection, schedule: Q01DX009 (oral), vehicle: Klucel (hydroxypropylcellulose) (HPC) 113 % of control | [2] 99 % of control | [3] 110 % of control | dose: 12.5 mg/kg/injection, schedule: Q01DX009 (oral), vehicle: Klucel (hydroxypropylcellulose) (HPC) 108 % of control | dose: 12.5 mg/kg/injection, schedule: Q01DX009 (oral), vehicle: saline with Tween-80 107 % of control | [4] 96 % of control | dose: 25.0 mg/kg/injection, schedule: Q01DX009 (oral), vehicle: Klucel (hydroxypropylcellulose) (HPC) 110 % of control | dose: 25.0 mg/kg/injection, schedule: Q01DX009 (oral), vehicle: saline with Tween-80 109 % of control | [5] 96 % of control | dose: 50.0 mg/kg/injection, schedule: Q01DX009 (oral), vehicle: Klucel (hydroxypropylcellulose) (HPC) 119 % of control | dose: 50.0 mg/kg/injection, schedule: Q01DX009 (oral), vehicle: saline with Tween-80 106 % of control | dose: 100.0 mg/kg/injection, schedule: Q01DX009 (ip), vehicle: Klucel (hydroxypropylcellulose) (HPC) 114 % of control | dose: 100.0 mg/kg/injection, schedule: Q01DX009 (oral), vehicle: Klucel (hydroxypropylcellulose) (HPC) 102 % of control | dose: 100.0 mg/kg/injection, schedule: Q01DX009 (oral), vehicle: saline with Tween-80 119 % of control | dose: 200.0 mg/kg/injection, schedule: Q01DX009 (ip), vehicle: Klucel (hydroxypropylcellulose) (HPC) 113 % of control | dose: 200.0 mg/kg/injection, schedule: Q01DX009 (oral), vehicle: Klucel (hydroxypropylcellulose) (HPC) 99 % of control | dose: 200.0 mg/kg/injection, schedule: Q01DX009 (oral), vehicle: saline with Tween-80 112 % of control | dose: 400.0 mg/kg/injection, schedule: Q01DX009 (oral), vehicle: saline with Tween-80 110 % of control

CNC(=O)n1c(N)nc(-c2ccccc2)c1-c1ccccc1
inactive: [6] 98 % of control | [3] 98 % of control | [7] 106 % of control | [8] 107 % of control

Cn1cnc([N+](=O)[O-])c1Sc1nc(N)nc2c1ncn2C1OC(CO)C(O)C1O (stereo unspecified)
inactive: dose: 12.5 mg/kg/injection, schedule: Q01DX009 (ip), vehicle: suspension in saline 91 % of control

CCCCCCCC(=O)N(C)OC
inactive: dose: 6.25 mg/kg/injection, schedule: Q04DX003 (ip), vehicle: Klucel (hydroxypropylcellulose) (HPC) 107 % of control | dose: 12.5 mg/kg/injection, schedule: Q04DX003 (ip), vehicle: Klucel (hydroxypropylcellulose) (HPC) 96 % of control | dose: 25.0 mg/kg/injection, schedule: Q04DX003 (ip), vehicle: Klucel (hydroxypropylcellulose) (HPC) 112 % of control

C1=CC2CC3(OCCO3)C2C1 (stereo unspecified)
inactive: [8] 88 % of control | [9] 106 % of control | [10] 93 % of control

CN(C)CCCN1c2ccccc2Sc2c(Cl)cc(Cl)cc21
inactive: dose: 3.12 mg/kg/injection, schedule: Q01DX009 (ip), vehicle: saline 97 % of control | dose: 6.25 mg/kg/injection, schedule: Q01DX009 (ip), vehicle: saline 105 % of control | dose: 12.5 mg/kg/injection, schedule: Q01DX009 (ip), vehicle: saline 102 % of control | dose: 25.0 mg/kg/injection, schedule: Q01DX009 (ip), vehicle: saline 87 % of control

CN(C)C1=C(N2CC2)C(=O)C(N(C)C)=C(N2CC2)C1=O
inactive: dose: 0.12 mg/kg/injection, schedule: Q01DX009 (ip), vehicle: saline 106 % of control | dose: 0.25 mg/kg/injection, schedule: Q01DX009 (ip), vehicle: saline 112 % of control | dose: 0.5 mg/kg/injection, schedule: Q01DX009 (ip), vehicle: saline 93 % of control | dose: 1.0 mg/kg/injection, schedule: Q01DX009 (ip), vehicle: saline 112 % of control

Cc1cc(C(=O)NNCc2ccccc2)no1
inactive: dose: 3.12 mg/kg/injection, schedule: Q01DX009 (ip), vehicle: Klucel (hydroxypropylcellulose) (HPC) 88 % of control and 98 % of control | [1] 88 % of control and 98 % of control | [2] 99 % of control | [4] 90 % of control and 92 % of control and 102 % of control | [5] 90 % of control

C[n+]1noc([O-])c1-c1ccccc1
inactive: [8] 101 % of control | [9] 97 % of control | [10] 103 % of control

C/C(=N\NC(N)=O)c1cccc(/C(C)=N/NC(N)=O)n1
inactive: [6] 91 % of control | [3] 96 % of control | [7] 86 % of control | [8] 88 % of control | [9] 86 % of control

C=C1C(=O)O[C@H]2/C=C(/C)C3=CC(=O)[C@@](C)(C[C@@H](OC(=O)/C(C)=C\C)C12)O3 (stereo partly specified)
inactive: dose: 0.75 mg/kg/injection, schedule: Q01DX009 (ip), vehicle: Klucel (hydroxypropylcellulose) (HPC) 98 % of control | dose: 1.5 mg/kg/injection, schedule: Q01DX009 (ip), vehicle: Klucel (hydroxypropylcellulose) (HPC) 93 % of control | dose: 3.0 mg/kg/injection, schedule: Q01DX009 (ip), vehicle: Klucel (hydroxypropylcellulose) (HPC) 88 % of control | dose: 6.0 mg/kg/injection, schedule: Q01DX009 (ip), vehicle: Klucel (hydroxypropylcellulose) (HPC) 91 % of control | dose: 12.0 mg/kg/injection, schedule: Q01DX009 (ip), vehicle: Klucel (hydroxypropylcellulose) (HPC) 90 % of control

C=C(NC(C)=O)C(=O)CCC(N)=O
inactive: dose: 5.0 mg/kg/injection, schedule: Q01DX009 (ip), vehicle: saline 92 % of control | dose: 10.0 mg/kg/injection, schedule: Q01DX009 (ip), vehicle: saline 102 % of control | dose: 20.0 mg/kg/injection, schedule: Q01DX009 (ip), vehicle: saline 97 % of control

COc1cccc(C(O)c2ccncc2C)c1OC (stereo unspecified)
inactive: dose: 25.0 mg/kg/injection, schedule: Q01DX009 (ip), vehicle: water 98 % of control | dose: 50.0 mg/kg/injection, schedule: Q01DX009 (ip), vehicle: water 98 % of control | dose: 100.0 mg/kg/injection, schedule: Q01DX009 (ip), vehicle: water 101 % of control | dose: 200.0 mg/kg/injection, schedule: Q01DX009 (ip), vehicle: water 104 % of control

O=C(Nc1ccc(N=C=S)cc1Cl)c1cc(Cl)cc(Cl)c1O
inactive: [1] 104 % of control | [2] 102 % of control and 111 % of control | [4] 110 % of control and 111 % of control | [5] 108 % of control and 118 % of control

CCC1NC(=O)C(NC(=O)c2ncccc2O)C(C)OC(=O)C(c2ccccc2)NC(=O)C2CC(=O)CCN2C(=O)C(Cc2ccccc2)N(C)C(=O)C2CCCN2C1=O (stereo unspecified) (tested in a mixture with another compound)
inactive: dose: 18.75 mg/kg/injection, schedule: Q01DX009 (ip), vehicle: Klucel (hydroxypropylcellulose) (HPC) 104 % of control | dose: 37.5 mg/kg/injection, schedule: Q01DX009 (ip), vehicle: Klucel (hydroxypropylcellulose) (HPC) 108 % of control | dose: 75.0 mg/kg/injection, schedule: Q01DX009 (ip), vehicle: Klucel (hydroxypropylcellulose) (HPC) 108 % of control

COc1ccc2c(c1)C(=O)CC=C(C(=O)O)N2
inactive: dose: 100.0 mg/kg/injection, schedule: Q01DX009 (ip), vehicle: saline 100 % of control | dose: 100.0 mg/kg/injection, schedule: Q04DX003 (ip), vehicle: saline with Tween-80 88 % of control | dose: 200.0 mg/kg/injection, schedule: Q01DX009 (ip), vehicle: saline 96 % of control | dose: 200.0 mg/kg/injection, schedule: Q04DX003 (ip), vehicle: saline with Tween-80 93 % of control | dose: 400.0 mg/kg/injection, schedule: Q01DX009 (ip), vehicle: saline 98 % of control | dose: 400.0 mg/kg/injection, schedule: Q04DX003 (ip), vehicle: saline with Tween-80 95 % of control
